Laboratory results as given in PMC10813298, “Evidence of Guanidines Potential against Leishmania (Viannia) braziliensis: Exploring In Vitro Effectiveness, Toxicities and of Innate Immunity Response Effects” (Biomolecules, 2023).

Columns and labels:
[1] = tested on: nitric oxide (NO); assay: Nitric oxide synthesis induction (Griess) in infected macrophages; assay type: cell-based, murine; conditions: supernatant of RAW 264.7 macrophages infected with L. (V.) braziliensis
Protocol: To evaluate the induction of nitric oxide (NO) synthesis, the following procedure was conducted: In 96-well plates, 100 μL of the supernatants obtained from the macrophage infection assays by L. (V.) braziliensis were placed. An equal volume of Griess® reagent (obtained from Sigma-Aldrich, St. Louis, MO, USA) was added to each well. In parallel, the same procedure was carried out using known concentrations of sodium nitrite (NaNO2, obtained from Vertec Química Fina, Duque de Caxias, RJ, Brazil) ranging from 125 to 2 μmol/L, which were prepared in RPMI medium. This was performedto generate a standard curve. The plates were then incubated at room temperature for 10 min. Subsequently, the absorbance of the samples was measured in a plate reader at a wavelength of 545 nm. The concentration of nitrite in the supernatants was determined by interpolating the absorbance values onto the standard curve.

[2] = Cell toxicity, MTT-based EZ4U assay, HEK-293; design: species or system human; conditions: human, HEK-293 cells (embryonic kidney), HEK, 72 h
Protocol: (§1) In this study, we utilized the RAW 264.7 macrophages line (obtained from ATCC: code TIB-71™),human embryonic kidney cell line HEK-293 (obtained from ATCC: code CRL-1573™)and two human cancer cell cultures: the colon carcinoma cell line CaCo-2 and the adenocarcinomic human alveolar basal epithelial cell A549 (also obtained from ATCC: codesHTB-37™ and CCL-185™).These cell lines were cultured in Dulbecco’s modified Eagle medium (DMEM) from Gibco by Life Technologies (LifeTech Austria, Vienna, Austria). The growth medium was supplemented with 5% fetal bovine serum (FBS) from Gibco by Life Technologies and 1% penicillin-streptomycin obtained from Sigma-Aldrich (Vienna, Austria). The cells were maintained at 37 °C with 5% CO2 in a humidified incubator, and regular checks for mycoplasma contamination were carried out.
(§2) For experimental purposes, the cells were seeded into 96-well plates at a density of 2 × 10^4 cells/mL, with each well containing 100 µL of the cell suspension. The cells were allowed to adhere for 24 h. […] The stock solutions of these compounds were prepared in water with 10% (v/v) dimethyl sulfoxide (DMSO) and stored at 4 °C.
(§3) To assess cell viability after 72 h of exposure to the compounds, we employed a 3-(4,5-dimethylthiazol-2-yl)-2,5-diphenyltetrazolium bromide (MTT)-based vitality assay kit (EZ4U, Biomedica, Vienna, Austria). Briefly, we added 20 µL of the EZ4U assay solution to each well and incubated the plates in the dark for 2 h. Subsequently, we measured the absorbance using a microplate reader at 450 nm, with 620 nm as a reference to reduce unspecific background values. For reliability, all experiments were conducted three times with triplicate samples.

[3] = tested on: HEK-293; assay: Cell toxicity, MTT-based EZ4U assay, HEK-293; design: species or system human; conditions: HEK-293, 1.56–500 µmol/L
Protocol: as §1, §2, §3

[4] = tested on: terminal ileum; assay: Spasmolytic effect on terminal ileum (KCl contraction); conditions: guinea pig terminal ilea, KCl-induced contraction
Protocol: Guinea pigs of either sex weighing between 250 or 380 g were utilized in this study. The animals were housed in a controlled environment in an air-conditioned room, maintaining a temperature of 22 to 24 °C and a relative humidity of 50% to 60%. A 12 h light–dark cycle was maintained.
On the day of the experiments, the animals were euthanized via cervical dislocation. The heart, aorta, pulmonary artery, and ileum were surgically removed and immersed in Krebs–Henseleit solution, with the following composition: NaCl 144.9 mM, KCl 4.73 mM, CaCl2 3.2 mM, MgSO4 1.18 mM, NaHCO3 24.9 mM, KH2PO4 1.18 mM, and glucose 10 mM, with the pH maintained at 7.2–7.4. This solution was continuously aerated with a mixture of 95% O2 and 5% CO2.
Papillary muscles were isolated from the right ventricle of the heart and meticulously cleared of Purkinje fibers to prevent spontaneous activity. To ensure adequate oxygen supply, only muscles with a diameter less than 0.87 mm were used. The right atrium was also dissected for assessment of chronotropic activity. Both the aorta and pulmonary artery were cleaned and cut into 5 mm rings, while the ileum was sectioned into pieces measuring 1 to 2 cm.
One end of the dissected tissues was securely tied with silver wire for attachment to a tissue holder, while the other end was connected to a force transducer (Transbridge™, 4-Channel Transducer Amplifier, World Precision Instruments, Sarasota, FL, USA). For contractile measurements, the terminal ileum was stimulated with 60 mM KCl, and the pulmonary artery and aorta rings were exposed to a 90 mM KCl solution. Papillary muscles were electrically stimulated using an Anapulse Stimulator Model 301-T and an Isolation Unit Model 305-1 (WPI, Hamden, CT, USA) with rectangular pulses of 3 ms duration at a frequency of 1 Hz. The amplitude of the stimulation pulse was maintained at 10% above the threshold level. To optimize contractility, a constant resting tension was applied throughout the experiment: 3.9 mN for papillary muscle, 4.9 mN for terminal ileum, 10.4 mN for the right atrium, and 19.6 mN for aorta and pulmonary artery rings.
Following a 30 min control period, different concentrations of test compounds were cumulatively added to the bath solution every 45 min until a stable effect was achieved. The responses were recorded using a chart recorder (BD 112 Dual Channel, Kipp &Zonen, PO Box 507, 2624 BC, Delft, Holland) for subsequent evaluation. Stock concentrations of the test compounds were prepared using DMSO. To account for any potential DMSO effect, control experiments were conducted with the solvent alone, and the observed effects were subtracted from the responses elicited by the test compounds.

[5] = Cell toxicity, MTT-based EZ4U assay, CaCo-2; conditions: human, CaCo-2 cells (colon carcinoma); for viability at 72 h, 2.34 µmol/L: CACO2, 2.34 µmol/L; for viability at 72 h, 4.6875 µmol/L: CACO2, 4.6875 µmol/L; for viability at 72 h, 9.375 µmol/L: CACO2, 9.375 µmol/L; for viability at 72 h, 18.75 µmol/L: CACO2, 18.75 µmol/L; for viability at 72 h, 37.5 µmol/L: CACO2, 37.5 µmol/L; for viability at 72 h, 75 µmol/L: CACO2, 75 µmol/L; for viability at 72 h, 150 µmol/L: CACO2, 150 µmol/L; for viability at 72 h, 300 µmol/L: CACO2, 300 µmol/L; for viability at 72 h, 600 µmol/L: CACO2, 600 µmol/L
Protocol: as §1
For experimental purposes, the cells were seeded into 96-well plates at a density of 2 × 10^4 cells/mL, with each well containing 100 µL of the cell suspension. The cells were allowed to adhere for 24 h. Subsequently, they were exposed to 100 µL of the test compounds, which were diluted in DMEM, with concentrations ranging from 2 to 600 µmol/L. The stock solutions of these compounds were prepared in water with 10% (v/v) dimethyl sulfoxide (DMSO) and stored at 4 °C.
as §3

SMILES: CC(C)(C)c1ccc(N/C(=N\C(=O)c2ccccc2)NCc2ccccc2)cc1 [LQOF-G6, (Z)-N-benzoyl-N-benzyl-N-(4-tert-butylphenyl)guanidine]
- NO level [1]: increased

SMILES: O=C(/N=C(/NCc1ccccc1)Nc1ccc(Br)cc1)c1ccccc1 [LQOF-G2, (Z)-N-benzoyl-N-benzyl-N-(4-bromophenyl)guanidine]
- viability at 72 h, 2.34 µmol/L [2]: 104 ± 2.9%
- viability at 72 h, 4.6875 µmol/L [2]: 109 ± 9.6%
- viability at 72 h, 9.375 µmol/L [2]: 103 ± 13.5%
- viability at 72 h, 18.75 µmol/L [2]: 108 ± 8.6%
- viability at 72 h, 37.5 µmol/L [2]: 96 ± 2.9%
- viability at 72 h, 75 µmol/L [2]: 99 ± 8.5%
- viability at 72 h, 150 µmol/L [2]: 145 ± 3.3%
- viability at 72 h, 300 µmol/L [2]: 123 ± 7.1%
- viability at 72 h, 600 µmol/L [2]: 133 ± 8.4%
- toxic effects on cell viability [3]: No toxic effects
- spasmolytic effect / contraction force in the terminal ileum [4]: decrease in contraction force
- viability at 72 h, 2.34 µmol/L [5]: 106 ± 3.6%
- viability at 72 h, 4.6875 µmol/L [5]: 109 ± 13.6%
- viability at 72 h, 9.375 µmol/L [5]: 109 ± 14.7%
- viability at 72 h, 18.75 µmol/L [5]: 103 ± 5.7%
- viability at 72 h, 37.5 µmol/L [5]: 97 ± 4.9%
- viability at 72 h, 75 µmol/L [5]: 99 ± 6.4%
- viability at 72 h, 150 µmol/L [5]: 107 ± 5.3%
- viability at 72 h, 300 µmol/L [5]: 103 ± 6.6%
- viability at 72 h, 600 µmol/L [5]: 119 ± 8.8%
- NO level [1]: increased

SMILES: O=C(/N=C(/NCc1ccccc1)Nc1ccc([N+](=O)[O-])cc1)c1ccccc1 [LQOF-G1, (Z)-N-benzoyl-N-benzyl-N-(4-nitrophenyl)guanidine]
- viability at 72 h, 2.34 µmol/L [2]: 99 ± 10%
- viability at 72 h, 4.6875 µmol/L [2]: 104 ± 11%
- viability at 72 h, 9.375 µmol/L [2]: 125 ± 8.1%
- viability at 72 h, 18.75 µmol/L [2]: 125 ± 9.4%
- viability at 72 h, 37.5 µmol/L [2]: 100 ± 11%
- viability at 72 h, 75 µmol/L [2]: 115 ± 7%
- viability at 72 h, 150 µmol/L [2]: 111 ± 5%
- viability at 72 h, 300 µmol/L [2]: 117 ± 6%
- viability at 72 h, 600 µmol/L [2]: 115 ± 10%
- toxic effects on cell viability [3]: No toxic effects
- spasmolytic effect / contraction force in the terminal ileum [4]: decrease in contraction force
- viability at 72 h, 2.34 µmol/L [5]: 106 ± 8%
- viability at 72 h, 4.6875 µmol/L [5]: 109 ± 5%
- viability at 72 h, 9.375 µmol/L [5]: 109 ± 7%
- viability at 72 h, 18.75 µmol/L [5]: 109 ± 10%
- viability at 72 h, 37.5 µmol/L [5]: 97 ± 13%
- viability at 72 h, 75 µmol/L [5]: 99 ± 7%
- viability at 72 h, 150 µmol/L [5]: 107 ± 3%
- viability at 72 h, 300 µmol/L [5]: 103 ± 10%
- viability at 72 h, 600 µmol/L [5]: 119 ± 5%
- NO level [1]: increased

SMILES: O=C(/N=C(/NCc1ccc(Cl)cc1Cl)Nc1ccc(Br)cc1)c1ccccc1 [LQOF-G32, (Z)-N-benzoyl-N-(2,4-di-chlorobenzyl)-N-(4-bromophenyl)guanidine]
- viability at 72 h, 2.34 µmol/L [2]: 93 ± 5.3%
- viability at 72 h, 4.6875 µmol/L [2]: 95 ± 12.7%
- viability at 72 h, 9.375 µmol/L [2]: 89 ± 7.9%
- viability at 72 h, 18.75 µmol/L [2]: 94 ± 8.9%
- viability at 72 h, 37.5 µmol/L [2]: 91 ± 6.9%
- viability at 72 h, 75 µmol/L [2]: 91 ± 13.9%
- viability at 72 h, 150 µmol/L [2]: 94 ± 12.7%
- viability at 72 h, 300 µmol/L [2]: 118 ± 13.9%
- viability at 72 h, 600 µmol/L [2]: 185 ± 10.1%
- toxic effects on cell viability [3]: No toxic effects
- spasmolytic effect / contraction force in the terminal ileum [4]: decrease in contraction force
- viability at 72 h, 2.34 µmol/L [5]: 138 ± 8.4%
- viability at 72 h, 4.6875 µmol/L [5]: 123 ± 11.4%
- viability at 72 h, 9.375 µmol/L [5]: 117 ± 7.3%
- viability at 72 h, 18.75 µmol/L [5]: 116 ± 9.7%
- viability at 72 h, 37.5 µmol/L [5]: 79 ± 6.4%
- viability at 72 h, 75 µmol/L [5]: 53 ± 14.8%
- viability at 72 h, 150 µmol/L [5]: 45 ± 10.4%
- viability at 72 h, 300 µmol/L [5]: 45 ± 15.9%
- viability at 72 h, 600 µmol/L [5]: 66 ± 12.3%

SMILES: O=C(/N=C(/NCc1ccccc1)Nc1ccc(I)cc1)c1ccccc1 [LQOF-G7, (Z)-N-benzoyl-N-benzyl-N-(4-iodophenyl)guanidine]
- spasmolytic effect / contraction force in the terminal ileum [4]: decrease in contraction force
